Results taken from paper PMC5159191 (Nature, 2016).

System: CCR2-T4L
Format: binding, human
Settings: [3H]-INCB-3344 homologous displacement

Structure (SMILES): CCO[C@H]1CN(C2CCC(O)(c3ccc4c(c3)OCO4)CC2)C[C@@H]1NC(=O)CNC(=O)c1cccc(C(F)(F)F)c1 (stereo partly shown) [INCB-3344]
- improvement of affinity towards CCR2-T4L compared to WT CCR2: approximately 2 fold
